“And” between values parts separate entries of the source, which are not always exact repeats. Equal entries are not always repeated.
Assays:
[1] = biological target: T1, PfCRT variant H123A (Plasmodium falciparum, UniProt Q9N623, A220S/H123A/I356T/K76T/M74I/N326S/N75E/Q271E/R371I); assay: CQ uptake assay, oocytes expressing H123A; type: cell-based
T1 sequence (Q9N623 1-424 M74I/N75E/K76T/H123A/A220S/Q271E/N326S/I356T/R371I): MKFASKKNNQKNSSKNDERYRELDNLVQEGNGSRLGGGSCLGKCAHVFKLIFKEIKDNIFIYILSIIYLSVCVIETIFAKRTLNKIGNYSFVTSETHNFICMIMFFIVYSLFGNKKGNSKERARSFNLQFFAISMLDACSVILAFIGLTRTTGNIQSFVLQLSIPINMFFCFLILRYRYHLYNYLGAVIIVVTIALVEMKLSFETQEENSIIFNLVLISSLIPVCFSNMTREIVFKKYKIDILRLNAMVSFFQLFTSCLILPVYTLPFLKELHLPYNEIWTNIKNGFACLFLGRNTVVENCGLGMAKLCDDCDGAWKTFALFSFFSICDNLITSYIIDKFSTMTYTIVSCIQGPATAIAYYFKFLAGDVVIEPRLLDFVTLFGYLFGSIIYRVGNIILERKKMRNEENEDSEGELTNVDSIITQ
Method: (§1) Site-directed mutagenesis of PfCRT^Dd2 was performed as described using the megaprimer method with overlap extension[21],[54]. The primer pairs used are listed in Supplementary Table 6. Please note that a codon-optimized and oocyte-adapted version of PfCRT^Dd2 was used[22] (Supplementary Fig. 16). The resulting DNA fragment was cloned into the SP64T expression vector and verified by sequencing.
(§2) Oocytes were obtained as described previously. Briefly, adult (>2 years old) female X. laevis frogs (NASCO) were anesthetized in a cooled solution of ethyl 3-amino benzoate methanesulfonate (0.1%, w/v), followed by a surgical removal of parts of the ovary. The ovary lobes were carefully dissected and small pieces of oocytes were incubated in Ca^2+-free ND96 buffer (96 mM NaCl, 2 mM KCl, 1 mM MgCl2 buffered with 5 mM HEPES/NaOH, pH 7.5) supplemented with collagenase D (0.1%, w/v; Roche), BSA (0.5%, w/v), and 9 mm Na2HPO4 at 18 °C for 14-16 h while gentle shaking. After incubation, the oocytes were carefully washed several times with ND96 buffer (96 mM NaCl, 2 mM KCl, 1.8 mM CaCl2, 1 mM MgCl2 buffered with 5 mM HEPES/NaOH, pH 7.5) supplemented with 100 mg l^−1 gentamycin). Defolliculated and healthy-looking stage V-VI oocytes were manually selected for RNA microinjection. The RNA was generated as following: The codon-optimized sequences of PfCRT variants were cloned into the pSP64T expression vector. After vector linearization using the restriction endonucleases BamHI or SalI (New England Biolabs), transcription was performed using the in vitro SP6 mMessage mMachine Kit (Ambion)[34]. The obtained RNA was kept at −80 °C and diluted with nuclease-free water to a concentration of 0.6 μg μl^−1. Precision-bore glass capillary tubes (3.5-inch glass capillaries; Drummond Scientific Co.) were pulled on a vertical puller (P-87 Flaming/Brown micropipette puller, Sutter Instrument Co.), graduated, and placed on a microinjector (Nanoject II Auto-Nanoliter Injector, Drummond Scientific Co.). 50 nl of nuclease-free water alone (control oocytes) or 50 nl of 0.6 μg μl^−1 RNA were injected under stereomicroscopic control. Injected oocytes were incubated for 46–72 h at 18 °C with twice-daily buffer changes before usage in experiments.
Drug uptake assays were performed as described previously[21],[22],[24],[34]. […] The direction of radio-labeled drug transport is here from the mostly acidic extracellular solution (pH 4.5 or 6.0, as indicated) into the oocyte cytosol (pH ∼ 7.2), which corresponds to the efflux of drug from the acidic digestive vacuole (pH 5.2) into the parasite cytoplasm (pH 7.2). The topology of PfCRT in the oolemma is such that both the N- and C-terminus face the extracellular milieu[3],[22]. In the parasite, the N- and C-terminus face the lumen of the digestive vacuole. […] For determination of the amount of drug uptake for each oocyte, the reaction medium was removed and the oocytes were washed three times with 2 ml of ice-cold ND96 buffer. Each oocyte was individually transferred to a scintillation vial containing 5% sodium dodecyl sulfate (200 μl) for lysis. […] Oocytes that were injected with water instead of RNA were analyzed in parallel, representing the uptake of a drug by diffusion and/or endogenous permeation pathways. […] The specific PfCRT-mediated uptake was determined by subtracting the corresponding background value measured in water-injected oocytes from that of PfCRT-expressing oocytes. […]

[2] = tested on: PfCRT variant E207R; assay: CQ uptake assay, oocytes expressing E207R; type: cell-based, Plasmodium falciparum
Method: as §1, §2
Drug uptake assays were performed as described previously[21],[22],[24],[34]. […] The direction of radio-labeled drug transport is here from the mostly acidic extracellular solution (pH 4.5 or 6.0, as indicated) into the oocyte cytosol (pH ∼ 7.2), which corresponds to the efflux of drug from the acidic digestive vacuole (pH 5.2) into the parasite cytoplasm (pH 7.2). The topology of PfCRT in the oolemma is such that both the N- and C-terminus face the extracellular milieu[3],[22]. In the parasite, the N- and C-terminus face the lumen of the digestive vacuole. CQ uptake kinetics were performed by incubating oocytes in ND96 buffer adjusted to a pH of 4.5, 5.0, 5.5, or 6.0 and supplemented with 50 nM [^3H]CQ and one of 7 different CQ concentrations (10 µM, 50 µM, 100 µM, 200 µM, 300 µM, 400 µM, 500 µM CQ). The reaction was stopped at the 60 min time point, which is in the linear uptake range[22],[34] (Supplementary Fig. 17). For determination of the amount of drug uptake for each oocyte, the reaction medium was removed and the oocytes were washed three times with 2 ml of ice-cold ND96 buffer. Each oocyte was individually transferred to a scintillation vial containing 5% sodium dodecyl sulfate (200 μl) for lysis. The radioactivity of each sample was measured using a liquid scintillation analyzer Tri-Carb 4910 TR (PerkinElmer). Oocytes that were injected with water instead of RNA were analyzed in parallel, representing the uptake of a drug by diffusion and/or endogenous permeation pathways. The resulting value represents the “background“ level of drug accumulation in oocytes (in-depth discussion in[22]). […]

[3] = E207R, 50 µM CQ, 1 h, mean ± SEM

For CCN(CC)CCCC(C)Nc1ccnc2cc(Cl)ccc12 (centres unmarked) [CQ, chloroquine], the “Activity at pH 6.0” value ([1]; H123A, 50 µM CQ, 1 h, mean ± SEM) was 4.85 ± 0.43 pmol h-1 oocyte-1, the R-value ([1]; H123A, CQ transport at pH 4.5 / pH 6.0) was 0.36 ± 0.09 and the “H123A transport activity pH 4.5” value ([1]; pH 4.5, single replicates, Fig 1d left) was 1.12 pmol oocyte-1 h-1 and 2.16 pmol oocyte-1 h-1 and 1.35 pmol oocyte-1 h-1 and 2.48 pmol oocyte-1 h-1. The “H123A R-value” ([1]; pH 4.5 vs pH 6.0, Fig 1d left) was 0.44 and 0.35 and 0.42 and 0.27 and 0.52, the “H123A transport activity pH 6.0” value ([1]; pH 6.0, single replicates, Fig 1d left) was 6.18 pmol oocyte-1 h-1 and 3.21 pmol oocyte-1 h-1 and 5.14 pmol oocyte-1 h-1 and 4.96 pmol oocyte-1 h-1 and 4.77 pmol oocyte-1 h-1 and the “Activity at pH 4.5” value [2, 3] was 2.23 ± 0.16 pmol h-1 oocyte-1. The “Activity at pH 6.0” value [2, 3] was 2.69 ± 0.23 pmol h-1 oocyte-1, the R-value ([2]; E207R, CQ transport at pH 4.5 / pH 6.0) was 0.84 ± 0.04 and the “E207R transport activity pH 4.5” value ([2]; pH 4.5, individual replicates, Fig 6b) was 2.49 pmol oocyte-1 h-1 and 2.35 pmol oocyte-1 h-1 and 1.85 pmol oocyte-1 h-1. The “E207R transport activity pH 6.0” value ([2]; pH 6.0, individual replicates, Fig 6b) was 3.24 pmol oocyte-1 h-1 and 2.53 pmol oocyte-1 h-1 and 2.29 pmol oocyte-1 h-1 and the E207RR-value ([2]; ratio of activity pH 4.5 / pH 6.0) was 0.77 and 0.93 and 0.81.

From article PMC10349806 (Nature Communications, 2023)
